Laboratory results from patent US11400104B2, “Skeletal removal of bisphosphonates” (The Regents of the University of California, priority 2016, dated 2022).
Entries after “also recorded” stand apart in the source; their conditions may differ.

How the values were obtained:
[1] = hydroxyapatite (HAP) binding affinity, relative retention times normalized to RIS; conditions: FIG. 7
Protocol: FIG. 7 is a bar graph showing hydroxyapatite (HAP) binding affinity of Zoledronate (ZOL), ROX-RIS, 5-FAM-ZOL, and AF647-ZOL. Relative retention times were normalized to RIS.
Hydroxyapatite assays indicate that the FL-BPs generally retain substantial affinity for bone mineral that reflect the affinity of the BP component and to a lesser extent, the affinity of the conjugated fluorophore. Hydroxyapatite (Macro-Prep® Ceramic hydroxyapatite Type II […]) was obtained from Bio-Rad Laboratories, Inc. Hercules, Calif. Accurately weighed hydroxyapatite powder (1.4-1.6 mg) was suspended in a 4 mL clear vial containing the appropriate volume of assay buffer (0.05% (wt/vol) Tween20, 10 μM EDTA and 100 mM HEPES pH=7.4) for 3 hours. Hydroxyapatite was then incubated with increasing amounts of FAM-BP and ROX-BP (0, 25, 50, 100, 200, and 300 μM). Samples were gently shaken for 3 hours at 37° C. in appropriate volume of assay buffer (0.05% (wt/vol) Tween20, 10 μM EDTA and 100 mM HEPES pH=7.4). Subsequent to the equilibrium period, the vials were centrifuged at 10,000 rpm for 5 minutes to separate the solids and the supernatant. 0.3 mL of the supernatant was collected and the equilibrium solution concentration is measured by using Shimadzu UV-VIS spectrometer. For the calibration series, FL-BP probe standards were prepared by serial dilution from the stock solution with the same isotherm buffer to give the range from 0 to 400 μM. Calibration curves were constructed using standard solutions of the target FL-BPs. Fluorescent emission can also be used to calculate the binding parameters. Nonspecific binding was measured with a similar procedure in the absence of hydroxyapatite as control. Binding parameters (Kd and Bmax, represent the equilibrium dissociate constant and maximum number of binding sites, respectively) were calculated using the PRISM program (Graphpad, USA). The binding parameters of each compound was measured in 5 independent experiments. […]

mouse maxilla = test: intra-oral injection of AF647-ZOL into maxilla of mice pre-injected IV with FAM-ZOL, fluorescent biophotonics; assay type: in vivo
Protocol: FIG. 10 are representative images of mice maxilla. AF647-ZOL was orally injected into maxilla of mice pre-injected with 5-FAM-ZOL.
The mouse intra-oral injection protocol was established by using a Hamilton syringe with a 33-gauge needle. Under a surgical microscope, 2 μl solution was injected to the palatal gingiva of left first molar of mouse maxilla. After slow injection, the needle was left in the tissue for 3 minutes and then gently removed.
Using this method, 2 μl of 0 μM, 0.5 μM or 5.0 μM AF647-ZOL was injected to mouse maxillary oral mucosa to mice 6 days after retro-orbital IV injection of 100 μl of 50 μM FAM-ZOL. Mouse tissues were harvested 1 day after oral injection and maxillary bones were subjected to standardized fluorescent biophotonics image obtained using an excitation wavelength of 460 nm and a 515 nm filter (LAS3000, FUJIFILM Corp).

mouse cranial bone = test: cranial bone displacement: AF647-ZOL pre-adsorbed via IV, FAM-ZOL sub-periosteal injection; assay type: in vivo; conditions: IV injection; cryo-cross sections
Protocol: FIG. 12A to FIG. 12C show the displacement and replacement of AF647-ZOL and 5-FAM-ZOL. FIG. 12A are fluorescent images of cranial bone. AF647-ZOL (50 μM) was pre-adsorbed on cranial bone via IV injection. 5-FAM-ZOL at the indicated doses was directly injected to the sub-periosteal space. […] The first bars of each set are for AF647-ZOL and the second bars of each set are for 5-FAM-ZOL. *, P<0.05 vs Veh by Dunnett's test.
Mice were pre-treated by 100 μl of 50 μM AF647-ZOL retro-orbital IV injection. Six days later, mice received sub-periosteal injection to cranial bone with 10 μl of 0 μM, 1 μM, 10 μM, or 50 μM FAM-ZOL. The cranial bone was harvested and soft tissues were removed. The fluorescent signals of AF647 and FAM were measured by standardized fluorescent biophotonics. The cranial bones were then prepared for cryosection. Cross-sections were made by the tape method and evaluated by confocal laser scanning microscopy.

- influence of the fluorophore on hydroxyapatite affinity [1]: small reduction
- AF647 signal at and around the injection site on the palatal bone (mouse maxilla; 2 μl of 0, 0.5 or 5.0 μM intra-oral, harvested 1 day after): dose dependent adsorption
SMILES: CC1(C)C(C=CC=CC=C2N(CCCS(=O)(=O)O)c3ccc(S(=O)(=O)O)cc3C2(C)CCCCCC(=O)NCC(O)C[n+]2ccn(CC(O)(P(=O)(O)O)P(=O)(O)O)c2)=[N+](CCCS(=O)(=O)O)c2ccc(S(=O)(=O)O)cc21 (centres unmarked) [AF647-ZOL]
- displacement of pre-adsorbed FAM-ZOL in maxilla (mouse maxilla; FAM-ZOL 100 μl of 50 μM IV 6 days before AF647-ZOL intra-oral injection, qualitative): pre-adsorbed FAM-ZOL was removed; also recorded: Reduction of FAM-ZOL signal was observed qualitatively
- systemic distribution to the distant skeletal system (femur) (mouse maxilla; intra-oral injection): did not result in systemic distribution to the distant skeletal system
- location of AF647-ZOL labeling in cranial bone (mouse cranial bone): external and internal bone surfaces, as well as trabecular surface
